Test results: patent US20190167619A1, “PHARMACEUTICAL FORMULATIONS AND THEIR USE” (SIGNUM BIOSCIENCES, INC., priority 2016, published 2019)

Key:
[1] = Stability of a formulation comprising the disodium salt after storage at 5° C., HPLC (Example 3); assay type: physicochemical
Procedure: The stability of a formulation comprising the disodium salt of 4-(((R)-1-carboxy-2-(((2E,6E)-3,7,11-trimethyldodeca-2,6,10-trien-1-yl)thio)ethyl)amino)-4-oxobutanoic acid was determined after storage at 5° C. for a period of 1 month, 2 months, 3 months, 6 months, 9 months, 12 months, 18 months, and 24 months. In each case, the percentage of 4-(((R)-1-carboxy-2-(((2E,6E)-3,7,11-trimethyldodeca-2,6,10-trien-1-yl)thio)ethyl)amino)-4-oxobutanoic acid remaining at each time point was determined by use of HPLC. Each of the percentages in the table below are expressed at the weight percentage of the component as compared to the total weight of the composition.

[2] = Stability of a formulation comprising the disodium salt after storage at 25° C., HPLC (Example 2); assay type: physicochemical
Procedure: The stability of a formulation comprising the disodium salt of 4-(((R)-1-carboxy-2-(((2E,6E)-3,7,11-trimethyldodeca-2,6,10-trien-1-yl)thio)ethyl)amino)-4-oxobutanoic acid was determined after storage at 25° C. for a period of 4 months, 6 months, 9 months and 12 months. […]

Compound | weight percentage of the component as compared to the total weight of the composition ([1]; 1 month, storage at 5° C.) [weight percentage] | weight percentage of the component as compared to the total weight of the composition ([1]; 2 months, storage at 5° C.) [weight percentage] | weight percentage of the component as compared to the total weight of the composition ([1]; 3 months, storage at 5° C.) [weight percentage] | weight percentage of the component as compared to the total weight of the composition ([1]; 6 months, storage at 5° C.) [weight percentage] | weight percentage of the component as compared to the total weight of the composition ([1]; 9 months, storage at 5° C.) [weight percentage] | weight percentage of the component as compared to the total weight of the composition ([1]; 12 months, storage at 5° C.) [weight percentage] | weight percentage of the component as compared to the total weight of the composition ([1]; 18 months, storage at 5° C.) [weight percentage] | weight percentage of the component as compared to the total weight of the composition ([1]; 24 months, storage at 5° C.) [weight percentage] | weight percentage of the component as compared to the total weight of the composition ([1]; Initial) [weight percentage] | % age of sulfoxide of 4-(((R)-1-carboxy-2-(((2E,6E)-3,7,11-trimethyldodeca-2,6,10-trien-1-yl)thio)ethyl)amino)-4-oxobutanoic acid ([2]; Initial) [%] | % age of sulfoxide of 4-(((R)-1-carboxy-2-(((2E,6E)-3,7,11-trimethyldodeca-2,6,10-trien-1-yl)thio)ethyl)amino)-4-oxobutanoic acid ([2]; after 1 month, storage at 25° C.) [%] | % age of sulfoxide of 4-(((R)-1-carboxy-2-(((2E,6E)-3,7,11-trimethyldodeca-2,6,10-trien-1-yl)thio)ethyl)amino)-4-oxobutanoic acid ([2]; after 3 months, storage at 25° C.) [%] | % age of sulfoxide of 4-(((R)-1-carboxy-2-(((2E,6E)-3,7,11-trimethyldodeca-2,6,10-trien-1-yl)thio)ethyl)amino)-4-oxobutanoic acid ([2]; after 6 months, storage at 25° C.) [%] | % age of sulfoxide of 4-(((R)-1-carboxy-2-(((2E,6E)-3,7,11-trimethyldodeca-2,6,10-trien-1-yl)thio)ethyl)amino)-4-oxobutanoic acid ([2]; after 9 months, storage at 25° C.) [%]
COC(=O)c1ccc(O)cc1 [Methylparaben] | 0.17 | 0.17 | 0.17 | 0.18 | 0.17 | 0.17 | 0.17 | 0.15 | 0.17 |  |  |  |  | 
CCCOC(=O)c1ccc(O)cc1 [Propylparaben] | 0.032 | 0.032 | 0.033 | 0.032 | 0.033 | 0.032 | 0.033 | 0.030 | 0.034 |  |  |  |  | 
CC(C)=CCC/C(C)=C/CC/C(C)=C/CSC[C@H](NC(=O)CCC(=O)O)C(=O)O [4-(((R)-1-carboxy-2-(((2E,6E)-3,7,11-trimethyldodeca-2,6,10-trien-1-yl)thio)ethyl)amino)-4-oxobutanoic acid] |  |  |  |  |  |  |  |  |  | 0.037 | 0.031 | 0.113 | 0.053 | 0.134
